Assay results published in patent US5464617A, “β-lactam compounds” (Hoffmann-La Roche Inc., priority 1994, dated 1995).
≈ marks a conversion by molar mass, not a printed value. Structures can show the parent of a compound that is named as a salt.

Tests used:
[1] = tested on: Citrobacter freundii 1982; assay: MIC in vitro of a 1:4 combination of ceftriaxone with a compound of formula I (Test D); assay type: cell-based; details: test D
Description: The minimum inhibitory concentration in vitro ([…]) of a 1:4 combination of ceftriaxone with a compound of formula I against Citrobacter freundii 1982 was measured and compiled in Table 2 hereinafter.

[2] = tested on: E. coli 1346; assay: Antibacterial activity of the products per se, serial dilution method in liquid medium (Test E); assay type: cell-based; details: test E, product per se
From the text: The antibacterial activity of the products per se is illustrated on the basis of Table 3 hereinafter, the minimum inhibitory concentration […] in vitro against E. coli 1346 being determined using the serial dilution method in liquid medium: […]

[3] = Table 4, 1:4 combination of ceftriaxone with the compound
[4] = Table 5, particularly preferred products, 1:4 combination with ceftriaxone
[5] = Table 5, particularly preferred products

## CC(=O)OCC1=C(C(=O)O)N2C(=O)[C@@H]3[C@H]2[C@H](C1)CN3C(=O)C(F)(F)F [25(d), (1aS,3aR,6bR)-5-Acetoxymethyl-2-trifluoroacetyl-1-oxo-1a,2,3,3a,4,6b-hexahydro-1H-2,6a-diazacyclobut[cd]indene-6-carboxylic acid sodium salt]
[1]; [3]
  MIC C. freundii 1982 (D): 0.5 µg/mL
[2]; Table 4
  MIC E. coli 1346 (E): 4 µg/mL

## NC(=O)OCC1=C(C(=O)O)N2C(=O)[C@@H]3[C@H]2[C@H](C1)CN3C(=O)Nc1ccc(O)cc1 [27(a), (1aS,3aR,6bR)-5-Carbamoyloxymethyl-2-(4-hydroxyphenylcarbamoyl)-1-oxo-1a,2,3,3a,4,6b-hexahydro-1H-2,6a-diazacyclobut[cd]indene-6-carboxylic add sodium salt]
[1]; [4]
  MIC C. freundii 1982 (D): ≤ 0.06 µg/mL
[2]; [5]
  MIC E. coli 1346 (E): > 32 µg/mL

## NC(=O)OCC1=C(C(=O)O)N2C(=O)[C@@H]3[C@H]2[C@H](C1)CN3C(=O)Nc1ccc(C(N)=O)cc1 [27(b), (1aS,3aR,6bR)-5-Carbamoyloxymethyl-2-(4-carbamoylphenylcarbamoyl)-1-oxo-1a,2,3,3a,4,6b-hexahydro-1H-2,6a-diazacyclobut[cd]indene-6-carboxylic acid sodium salt]
[1]; [4]
  MIC C. freundii 1982 (D): ≤ 0.06 µg/mL
[2]; [5]
  MIC E. coli 1346 (E): > 32 µg/mL

## NC(=O)OCC1=C(C(=O)O)N2C(=O)[C@@H]3[C@H]2[C@H](C1)CN3C(=O)NC1CC1 [27(d), (1aS,3aR,6bR)-5-Carbamoyloxymethyl-2-cyclopropylcarbarmoyl-1-oxo-1a,2,3,3a,4,6b-hexahydro-1H-2,6a-diazacyclobut[cd]indene-6-carboxylic acid sodium salt]
[1]; [3]
  MIC C. freundii 1982 (D): 0.25 µg/mL
[2]; Table 4
  MIC E. coli 1346 (E): 32 µg/mL

## NC(=O)OCC1=C(C(=O)O)N2C(=O)[C@@H]3[C@H]2[C@H](C1)CN3C(=O)NCc1ccc(S(N)(=O)=O)cc1 [27(e), (1aS,3aR,6bR)-5-Carbamoyloxymethyl-2-(4-sulphamoylbenzylcarbamoyl)-1-oxo-1a,2,3,3a,4,6b-hexahydro-1H-2,6a-diazacyclobut[cd]indene-6-carboxylic acid sodium salt]
[1]; [3]
  MIC C. freundii 1982 (D): 0.5 µg/mL
[2]; Table 4
  MIC E. coli 1346 (E): 32 µg/mL

## NC(=O)OCC1=C(C(=O)O)N2C(=O)[C@@H]3[C@H]2[C@H](C1)CN3C(=O)NCc1cccs1 [27(f), (1aS,3aR,6bR)-5-Carbamoyloxymethyl-2-(thiophen-2-ylmethylcarbamoyl)-1-oxo-1a,2,3,3a,4,6b-hexahydro-1H-2,6a-diaza-cyclobut[cd]indene-6-carboxylic acid sodium salt]
[1]; [3]
  MIC C. freundii 1982 (D): 0.25 µg/mL
[2]; Table 4
  MIC E. coli 1346 (E): ≤ 0,25 μg/ml

## NC(=O)OCC1=C(C(=O)O)N2C(=O)[C@@H]3[C@H]2[C@H](C1)CN3C(=O)NCCc1cccs1 [27(g), (1aS,3aR,6bR)-5-Carbamoyloxymethyl-1-oxo-2-(2-thiophen-2-yl-ethylcarbamoyl)-1a,2,3,3a,4,6b-hexahydro-1H-2,6a-diazacyclobut[cd]indene-6-carboxylic acid sodium salt]
[1]; [3]
  MIC C. freundii 1982 (D): 0.5 µg/mL
[2]; Table 4
  MIC E. coli 1346 (E): > 32 µg/mL

## NC(=O)OCC1=C(C(=O)O)N2C(=O)[C@@H]3[C@H]2[C@H](C1)CN3C(=O)NCc1ccc(O)cc1 [27(h), (1aS,3aR,6bR)-5-Carbamoyloxymethyl-2-(4-hydroxybenzylcarbamoyl)-1-oxo-1a,2,3,3a,4,6b-hexahydro-1H-2,6a-diaza-cyclobut[cd]indene-6-carboxylic acid sodium salt]
[1]; [3]
  MIC C. freundii 1982 (D): 0.25 µg/mL
[2]; Table 4
  MIC E. coli 1346 (E): > 32 µg/mL

## C=CCOC(=O)N1C[C@H]2OC(CSc3nnnn3C)=C(C(=O)O)N3C(=O)[C@@H]1[C@@H]23 [29(e) Byproduct]
[1]; [3]
  MIC C. freundii 1982 (D): 1 µg/mL
[2]; Table 4
  MIC E. coli 1346 (E): 4 µg/mL (≈ 9.79 µM)

## O=C(Cn1nnnc1SCC1=C(C(=O)O)N2C(=O)[C@H]3NC[C@@H](O1)[C@H]32)NCCc1ccccc1 [29(h), (1aS,3aR,6bS)-1-Oxo-5-(1-(phenylethyl-carbamoylmethyl)-1H-tetrazol-5-ylsulphanylmethyl)-1,1a,2,3,3a,6b-hexahydro-4-oxa-2,6a-diazacydobut[cd]indene-6-carboxylic acid]
[1]; [3]
  MIC C. freundii 1982 (D): 32 µg/mL
[2]; Table 4
  MIC E. coli 1346 (E): > 32 µg/mL

## NC(=O)CNC(=O)Cn1nnnc1SCC1=C(C(=O)O)N2C(=O)[C@H]3NC[C@@H](O1)[C@H]32 [29(i), (1aS,3aR,6bS)-5-(1-(Carbamoylmethyl-carbamoylmethyl)-1H-tetrazol-5-ylsulphanylmethyl)-1-oxo-1,1a,2,3,3a,6b-hexahydro-4-oxa-2,6a-diazacyclobut[cd]indene-6-carboxylic acid]
[1]; [3]
  MIC C. freundii 1982 (D): 8 µg/mL
[2]; Table 4
  MIC E. coli 1346 (E): 8 µg/mL (≈ 18.9 µM)

## O=C(O)C1=C(CSc2nnnn2CC(=O)N2CCOCC2)O[C@@H]2CN[C@@H]3C(=O)N1[C@@H]32 [29(l), (1aS,3aR,6bS)-5-(1-(2-Morpholin-4-yl-2-oxo-ethyl)-1H-tetrazol-5-ylsulphanylmethyl)-1-oxo-1,1a,2,3,3a,6 b-hexahydro-4-oxa-2,6a-diazacyclobut[cd]indene-6-carboxylic acid]
[1]; [3]
  MIC C. freundii 1982 (D): 32 µg/mL
[2]; Table 4
  MIC E. coli 1346 (E): > 32 µg/mL

## Cc1nnc(SCC2=C(C(=O)O)N3C(=O)[C@@H]4[C@H]3[C@@H](CN4C(=O)Nc3ccc(C(N)=O)cc3)O2)s1 [31(b), (1aS,3aR,6bS)-2-(4-Carbamoyl-phenylcarbamoyl)-5-(S-methyl-1,3,4-thiadiazol-2-ylsulphanylmethyl)-1-oxo-1,1a,2,3,3a,6b-hexahydro-4-oxa-2,6a-diazacyclobut[cd]indene-6-carboxylic acid sodium salt]
[1]; [3]
  MIC C. freundii 1982 (D): 0.2 µg/mL
[2]; Table 4
  MIC E. coli 1346 (E): 8 µg/mL

## O=C(O)C1=C(CSc2ccncc2)O[C@@H]2CN(C(=O)Nc3ccc(O)cc3)[C@@H]3C(=O)N1[C@@H]32 [31(d), (1aS,3aR,6bS)-2-(4-Hydroxy-phenylcarbamoyl)-1-oxo-5-(pyridin-4-ylsulphanylmethyl)-1,1a,2,3,3a,6b-hexahydro-4-oxa-2,6a-diazacyclobut[cd]indene-6-carboxylicacid sodium salt]
[1]; [3]
  MIC C. freundii 1982 (D): 1 µg/mL
[2]; Table 4
  MIC E. coli 1346 (E): > 32 µg/mL

## NC(=O)c1ccc(NC(=O)N2C[C@H]3OC(CSc4ccncc4)=C(C(=O)O)N4C(=O)[C@@H]2[C@@H]34)cc1 [31(e), (1aS,3aR,6bS)-2-(4-Carbamoyl-phenylcarbamoyl)-1-oxo-5-(pyridin-4-ylsulphanylmethyl)-1,1a,2,3,3a,6 b-hexahydro-4-oxa-2,6a-diazacyclobut[cd]indene-6-carboxylic acid sodium salt]
[1]; [3]
  MIC C. freundii 1982 (D): 0.5 µg/mL
[2]; Table 4
  MIC E. coli 1346 (E): > 32 µg/mL

## Cn1nnnc1SCC1=C(C(=O)O)N2C(=O)[C@@H]3[C@H]2[C@@H](CN3C(=O)Nc2ccc(O)cc2)O1 [31(h), (1aS,3aR,6bS)-2-(4-hydroxy-phenylcarbamoyl)-5-(1-methyl-1H-tetrazol-5-ylsulphanylmethyl)-1-oxo-1,1a,2,3,3a,6b-hexahydro-4-oxa-2,6a-diazacyclobut[cd]indene-6-carboxylic acid sodium salt]
[1]; [3]
  MIC C. freundii 1982 (D): 0.5 µg/mL
[2]; Table 4
  MIC E. coli 1346 (E): 8 µg/mL

## Cn1nnnc1SCC1=C(C(=O)O)N2C(=O)[C@@H]3[C@H]2[C@@H](CN3C(=O)Nc2ccc(C(N)=O)cc2)O1 [31(i), (1aS,3aR,6bS)-2-(4-Carbamoyl-phenylcarbamoyl)-5-(1-methyl-1H-tetrazol-5-ylsulphanylmethyl)-1-oxo-1,1a,2,3,3a,6b-hexahydro-4-oxa-2,6a-diazacyclobut[cd]indene-6-carboxylic acid sodium salt]
[1]; [3]
  MIC C. freundii 1982 (D): 0.5 µg/mL
[2]; Table 4
  MIC E. coli 1346 (E): 8 µg/mL
